Data as given in US10294207B2, “Pyrazole derivatives as TNIK, IKKϵ and TBK1 inhibitor and pharmaceutical composition comprising same” (GREEN CROSS CORPORATION, priority 2015, dated 2019).
Counter-ions that a name gives are not always drawn.

Experiments:
TBK1 = target: T1, TBK1 (Homo sapiens, UniProt Q9UHD2); experiment: TBK1 inhibition, ADP-Glo Kinase Assay; format: biochemical; settings: luminometer
T1 construct: purchased Promega V3991
T1 sequence (Q9UHD2 1-729): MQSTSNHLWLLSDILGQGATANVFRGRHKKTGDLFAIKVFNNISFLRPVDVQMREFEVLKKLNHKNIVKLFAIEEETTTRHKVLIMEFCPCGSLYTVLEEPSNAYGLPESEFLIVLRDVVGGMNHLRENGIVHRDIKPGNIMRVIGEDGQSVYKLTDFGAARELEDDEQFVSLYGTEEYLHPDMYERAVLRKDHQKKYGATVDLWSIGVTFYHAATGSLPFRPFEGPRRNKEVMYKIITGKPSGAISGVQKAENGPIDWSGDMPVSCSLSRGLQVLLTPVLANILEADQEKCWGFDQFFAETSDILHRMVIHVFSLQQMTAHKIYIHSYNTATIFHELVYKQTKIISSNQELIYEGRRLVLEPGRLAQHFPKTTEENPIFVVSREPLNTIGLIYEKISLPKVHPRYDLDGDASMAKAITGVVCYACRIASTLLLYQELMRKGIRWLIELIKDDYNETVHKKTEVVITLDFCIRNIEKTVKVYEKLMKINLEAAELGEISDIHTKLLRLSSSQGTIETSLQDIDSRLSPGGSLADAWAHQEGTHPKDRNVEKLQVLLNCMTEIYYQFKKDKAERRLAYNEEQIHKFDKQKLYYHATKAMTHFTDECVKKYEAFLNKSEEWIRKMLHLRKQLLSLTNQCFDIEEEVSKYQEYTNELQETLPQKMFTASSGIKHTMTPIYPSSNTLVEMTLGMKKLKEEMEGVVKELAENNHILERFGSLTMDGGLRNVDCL
Protocol: (§1) Inhibition activities on TNIK, IKKε and TBK1 were evaluated using the compounds of Examples 1 to 254.
(§2) The inhibition activities on TNIK, IKKε and TBK1 were measured by a luminometer, TNIK/IKKε/TBK1 Kinase Enzyme System (Promega, Ca# V4158; Invitrogen, PR8031B, Promega, Ca# V3991) and ADP-Glo Kinase Assay using ADP-Glo™ Kinase Analysis Kit (Promega, Ca# V9101) and a kinase reaction buffer [40 mM Tris(pH 7.5), 20 mM MgCl2, 0.1 mg/mL BSA] in accordance with the manufacturer's protocol.

IKKε = target: T2, IKKε (Homo sapiens, UniProt Q14164); experiment: IKKε inhibition, ADP-Glo Kinase Assay; format: biochemical; settings: luminometer
T2 construct: purchased Invitrogen PR8031B
T2 sequence (Q14164 1-716): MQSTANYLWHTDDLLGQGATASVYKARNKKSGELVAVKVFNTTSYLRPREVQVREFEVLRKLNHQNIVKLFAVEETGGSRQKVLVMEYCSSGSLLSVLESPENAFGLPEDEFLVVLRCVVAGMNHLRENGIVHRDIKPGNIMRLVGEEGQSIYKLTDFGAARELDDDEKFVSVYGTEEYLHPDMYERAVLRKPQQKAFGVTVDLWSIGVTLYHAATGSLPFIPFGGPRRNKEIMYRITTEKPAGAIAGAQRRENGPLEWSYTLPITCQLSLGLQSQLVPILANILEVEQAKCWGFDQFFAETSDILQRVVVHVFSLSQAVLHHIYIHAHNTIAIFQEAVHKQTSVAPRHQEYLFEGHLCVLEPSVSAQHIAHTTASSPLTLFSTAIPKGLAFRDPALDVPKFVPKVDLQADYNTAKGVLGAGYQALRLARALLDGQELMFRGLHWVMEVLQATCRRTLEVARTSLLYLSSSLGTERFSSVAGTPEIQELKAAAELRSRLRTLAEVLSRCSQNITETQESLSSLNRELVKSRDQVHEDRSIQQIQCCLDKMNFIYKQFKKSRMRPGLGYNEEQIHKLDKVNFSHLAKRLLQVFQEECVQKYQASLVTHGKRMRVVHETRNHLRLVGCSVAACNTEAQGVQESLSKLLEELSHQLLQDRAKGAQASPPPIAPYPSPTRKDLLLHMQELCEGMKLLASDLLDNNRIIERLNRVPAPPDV
Protocol: as §1, §2

Structure (SMILES) | IC50 (TBK1) [µM] | IC50 (IKKε) [µM]
COc1ccc(C(=O)Nc2n[nH]c3ccc(C(=O)NCc4ccco4)cc23)cc1 [Example 2, N-(Furan-2-yl-methyl)-3-(4-methoxybenzamido)-1H-indazole-5-carboxamide] | 0.037 | 0.13
COc1ccc(C(=O)Nc2n[nH]c3ccc(C(=O)NCc4cccs4)cc23)cc1 [Example 3, 3-(4-Methoxybenzamido)-N-(thiophen-2-ylmethyl)-1H-indazole-5-carboxamide] | 0.038 | 0.11
Cn1cc(C(=O)Nc2n[nH]c3ccc(C(=O)NCc4cccs4)cc23)cn1 [Example 7, 3-(1-Methyl-1H-pyrazole-4-carboxamido)-N-(thiophen-2-ylmethyl)-1H-indazole-5-carboxamide] | 0.16 | 0.25
COc1ccc(C(=O)Nc2n[nH]c3ccc(C(=O)NCc4cccs4)cc23)nc1 [Example 8, 3-(5-Methoxypicolinamido)-N-(thiophen-2-ylmethyl)-1H-indazole-5-carboxamide Hydrochloride] | 0.082 | 0.33
O=C(Nc1n[nH]c2ccc(C(=O)NC3(c4cccs4)CC3)cc12)c1ccc(F)cc1 [Example 15, 3-(4-Fluorobenzamido)-N-(1-(thiophen-2-yl)cyclopropyl)-1H-indazole-5-carboxamide] | 0.025 | 0.055
N#CC1(NC(=O)c2ccc3[nH]nc(NC(=O)c4ccc(F)cc4)c3c2)CC1 [Example 16, N-(1-Cyanocyclopropyl)-3-(4-fluorobenzamido)-1H-indazole-5-carboxamide] | 0.39 | 0.91
CCCC(NC(=O)c1ccc2[nH]nc(NC(=O)c3ccc(F)cc3)c2c1)c1cccs1 (centres unmarked) [Example 18, 3-(4-Fluorobenzamido)-N-(1-(thiophen-2-yl)butyl)-1H-indazole-5-carboxamide] | 0.21 | 1.23
Cc1ccc(CNC(=O)c2ccc3[nH]nc(NC(=O)c4ccc(F)cc4)c3c2)s1 [Example 19, 3-(4-Fluorobenzamido)-N-((5-methylthiophen-2-yl)methyl)-1H-indazole-5-carboxamide] | 0.49 | 2.91
CC(C)(NC(=O)c1ccc2[nH]nc(NC(=O)c3ccc(F)cc3)c2c1)c1ccccc1 [Example 20, 3-(4-Fluorobenzamido)-N-(2-phenylpropan-2-yl)-1H-indazole-5-carboxamide] | 0.31 | 0.35
O=C(NCc1ccc(C(F)(F)F)cc1)c1ccc2[nH]nc(NC(=O)c3ccc(F)cc3)c2c1 [Example 21, 3-(4-Fluorobenzamido)-N-(4-(trifluoromethyl)benzyl)-1H-indazole-5-carboxamide] | > 10 | > 10
O=C(NCC1CC1)c1ccc2[nH]nc(NC(=O)c3ccc(F)cc3)c2c1 [Example 23, N-(Cyclopropylmethyl)-3-(4-fluorobenzamido)-1H-indazole-5-carboxamide] | 1.41 | 5.58
CCCCNC(=O)c1ccc2[nH]nc(NC(=O)c3ccc(F)cc3)c2c1 [Example 24, N-Butyl-3-(4-fluorobenzamido)-1H-indazole-5-carboxamide] | 0.66 | 2.46
CC(C)CCNC(=O)c1ccc2[nH]nc(NC(=O)c3ccc(F)cc3)c2c1 [Example 25, 3-(4-Fluorobenzamido)-N-isopentyl-1H-indazole-5-carboxamide] | 0.42 | 5.87

Results, then the molecule that gave them:

IC50 (TBK1) [µM] | IC50 (IKKε) [µM] | Structure (SMILES)
0.2 | 0.36 | O=C(NCc1cncs1)c1ccc2[nH]nc(NC(=O)c3ccc(F)cc3)c2c1 [Example 27, 3-(4-Fluorobenzamido)-N-(thiazol-5-ylmethyl)-1H-indazole-5-carboxamide 2,2,2-trifluoroacetate]
0.73 | 2.62 | O=C(NCc1ccccn1)c1ccc2[nH]nc(NC(=O)c3ccc(F)cc3)c2c1 [Example 28, 3-(4-Fluorobenzamido)-N-(pyridin-2-ylmethyl)-1H-indazole-5-carboxamide2,2,2-trifluoroacetate]
> 10 | > 10 | CCC(NCc1ccc2[nH]nc(NC(=O)c3ccc(F)cc3)c2c1)c1cccs1 (centres unmarked) [Example 32]
4.69 | 6.36 | CC(C)CC(NC(=O)c1ccc2[nH]nc(NC(=O)c3ccc(F)cc3)c2c1)c1cccs1 (centres unmarked) [Example 33, 3-(4-Fluorobenzamido)-N-(3-methyl-1-(thiophen-2-yl)butyl)-1H-indazole-5-carboxamide]
0.58 | 1.74 | CCC(C)(NC(=O)c1ccc2[nH]nc(NC(=O)c3ccc(F)cc3)c2c1)c1cccs1 (centres unmarked) [Example 34, 3-(4-Fluorobenzamido)-N-(2-(thiophen-2-yl)butan-2-yl)-1H-indazole-5-carboxamide]
0.28 | 0.93 | O=C(NCc1cccs1)c1ccc2[nH]nc(NC(=O)c3ccc(F)cc3F)c2c1 [Example 35, 3-(2,4-Difluorobenzamido)-N-(thiophen-2-ylmethyl)-1H-indazole-5-carboxamide]
0.00094 | 0.0089 | CN1CCN(c2ccc(C(=O)Nc3n[nH]c4ccc(C(=O)NCc5ccccc5)cc34)cc2)CC1 [Example 40, N-Benzyl-3-(4-(4-methylpiperazin-1-yl)benzamido)-1H-indazole-5-carboxamide]
0.0039 | 0.047 | CCC(NC(=O)c1ccc2[nH]nc(NC(=O)c3ccc(N4CCNCC4)cc3)c2c1)c1ccccc1 (centres unmarked) [Example 41, N-(1-Phenylpropyl)-3-(4-(piperazin-1-yl)benzamido)-1H-indazole-5-carboxamide]
0.0021 | 0.0049 | CC(NC(=O)c1ccc2[nH]nc(NC(=O)c3ccc(N4CCOCC4)cc3)c2c1)c1cccs1 (centres unmarked) [Example 43, 3-(4-Morpholinobenzamido)-N-(1-(thiophen-2-yl)ethyl)-1H-indazole-5-carboxamide]
0.0035 | 0.0031 | CC(NC(=O)c1ccc2[nH]nc(NC(=O)c3ccc(N4CCN(C)CC4)cc3)c2c1)c1cccs1 (centres unmarked) [Example 44, 3-(4-(4-Methylpiperazin-1-yl)benzamido)-N-(1-(thiophen-2-yl)ethyl)-1H-indazole-5-carboxamide]
0.0021 | 0.014 | CN1CCN(c2ccc(C(=O)Nc3n[nH]c4ccc(C(=O)NC(CO)c5cccs5)cc34)cc2)CC1 (centres unmarked) [Example 45, N-(2-Hydroxy-1-(thiophen-2-yl)ethyl)-3-(4-(4-methylpiperazin-1-yl)benzamido)-1H-indazole-5-carboxamide]
0.0015 | 0.022 | O=C(NCc1ccsc1)c1ccc2[nH]nc(NC(=O)c3ccc(N4CCOCC4)cc3)c2c1 [Example 46, 3-(4-Morpholinobenzamido)-N-(thiophen-3-ylmethyl)-1H-indazole-5-carboxamide]
0.0014 | 0.014 | CN1CCN(c2ccc(C(=O)Nc3n[nH]c4ccc(C(=O)NCc5ccsc5)cc34)cc2)CC1 [Example 47, 3-(4-(4-Methylpiperazin-1-yl)benzamido)-N-(thiophen-3-ylmethyl)-1H-indazole-5-carboxamide]
0.0011 | 0.0032 | O=C(Nc1n[nH]c2ccc(C(=O)NC3(c4cccs4)CC3)cc12)c1ccc(N2CCOCC2)cc1 [Example 48, 3-(4-Morpholinobenzamido)-N-(1-(thiophen-2-yl)cyclopropyl)-1H-indazole-5-carboxamide]
0.0025 | 0.0034 | CN1CCN(c2ccc(C(=O)Nc3n[nH]c4ccc(C(=O)NC5(c6cccs6)CC5)cc34)cc2)CC1 [Example 49, 3-(4-(4-Methylpiperazin-1-yl)benzamido)-N-(1-(thiophen-2-yl)cyclopropyl)-1H-indazole-5-carboxamide]
